Measured values taken from patent publication US20250215039A1, “NUCLEOSIDES FOR TREATING CANCER” (PRIMEFOUR THERAPEUTICS, INC., priority 2022, published 2025).
Read-outs that look alike come from different tables or passages of the source.

Tested on: cancer cell lines
Assay: Cancer cell proliferation activity (CellTiterGlo, 72 h)
Type: cell-based
Conditions: 72 h, 72 h, read-out: IC50
How it was run: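 Readout is CellTiterGlo luminescence after 72 h compound exposure (0.1% DMSO final), started one day post-seeding, at 37 °C.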

IC50 (5637 cell line (bladder)): 660 nM | IC50 (AS49 cell line (lung)): 4060 nM | IC50 (CLS439 cell line (bladder)): 9830 nM | IC50 (HS729 cell line (muscle)): 860 nM | IC50 (JAR cell line (placenta)): 330 nM | IC50 (Homo sapiens, 22Rv1, 72 h, 22RV1 cell line (prostate)): 1240 nM | IC50 (Homo sapiens, 786-0, 72 h, 786O cell line (kidney)): 400 nM | IC50 (Homo sapiens, A204, 72 h, A204 cell line (muscle)): 270 nM | IC50 (Homo sapiens, A673, 72 h, A673 cell line (bone)): 1950 nM | IC50 (Homo sapiens, A2780, 72 h, A2780 cell line (ovary)): 770 nM | IC50 (Homo sapiens, A-375, 72 h, A375 cell line (skin)): 210 nM | IC50 (Homo sapiens, A-431, 72 h, A431 cell line (skin)): 290 nM | IC50 (Homo sapiens, ACHN, ACHN cell line (kidney)): 2850 nM | IC50 (Homo sapiens, ASPC1, 72 h, ASPC1 cell line (pancreas)): 230 nM | IC50 (Homo sapiens, BT-20, 72 h, BT20 cell line (breast)): 390 nM | IC50 (Homo sapiens, BXPC-3, 72 h, BXPC3 cell line (pancreas)): 3380 nM | IC50 (Homo sapiens, C-33-A, C33A cell line (cervical)): 650 nM | IC50 (Homo sapiens, CAKI-1, 72 h, CAKI1 cell line (kidney)): 30 nM | IC50 (Homo sapiens, COLO 205, 72 h, COLO205 cell line (colon)): 810 nM | IC50 (Homo sapiens, COLO-678, 72 h, COLO678 cell line (colon)): 4150 nM | IC50 (Homo sapiens, Ca-Ski, CASKI cell line (cervical)): 200 nM | IC50 (Homo sapiens, Caco-2, 72 h, CACO2 cell line (colon)): 660 nM | IC50 (Homo sapiens, Calu-6, 72 h, CALU6 cell line (lung)): 300 nM | IC50 (Homo sapiens, DLD-1, 72 h, DLD1 cell line (colon)): 2490 nM | IC50 (Homo sapiens, DU-145, 72 h, DU145 cell line (prostate)): 160 nM | IC50 (Homo sapiens, EFO-21, 72 h, EFO21 cell line (ovary)): 540 nM | IC50 (Homo sapiens, EJ-28, 72 h, EJ28 cell line (bladder)): 440 nM | IC50 (Homo sapiens, Granta-519, 72 h, GRANTA-519 cell line (hematological)): 3460 nM | IC50 (Homo sapiens, HCT-15, 72 h, HCT15 cell line (colon)): 2070 nM | IC50 (Homo sapiens, HCT-116, 72 h, HCT116 cell line (colon)): 620 nM | IC50 (Homo sapiens, HEK293, 72 h, HEK293 cell line (kidney)): 460 nM | IC50 (Homo sapiens, HL-60, 72 h, HL-60 cell line (hematological)): 670 nM | IC50 (Homo sapiens, HT-29, 72 h, HT29 cell line (colon)): 300 nM | IC50 (Homo sapiens, HT-1080, 72 h, HT1080 cell line (connective tissue)): > 50000 nM | IC50 (Homo sapiens, HeLa, HELA cell line (cervical)): 490 nM | IC50 (Homo sapiens, HepG2, 72 h, HEPG2 cell line (liver)): 450 nM | IC50 (Homo sapiens, Hs-578T, HS578T cell line, breast): 470 nM | IC50 (Homo sapiens, IGROV-1, 72 h, IGROV1 cell line (ovary)): 340 nM | IC50 (Homo sapiens, IMR-90, 72 h, IMR90 cell line, lung): 450 nM | IC50 (Homo sapiens, J82, 72 h, J82 cell line (bladder)): 380 nM | IC50 (Homo sapiens, JEG-3, 72 h, JEG3 cell line (placenta)): 380 nM | IC50 (Homo sapiens, JIMT-1, 72 h, JIMT1 cell line (breast)): 90 nM | IC50 (Homo sapiens, K562, 72 h, K-562 cell line (hematological)): 3950 nM | IC50 (Homo sapiens, Kasumi 1, 72 h, KASUMI-1 cell line (hematological)): 80 nM | IC50 (Homo sapiens, L-363, 72 h, L-363 cell line (hematological)): 420 nM | IC50 (Homo sapiens, LoVo, LOVO cell line (colon)): 190 nM | IC50 (Homo sapiens, MCF7, 72 h, MCF7 cell line (breast)): > 50000 nM | IC50 (Homo sapiens, MDA-MB-231, 72 h, MDAMB231 cell line (breast)): 7320 nM | IC50 (Homo sapiens, MDA-MB-435, 72 h, MDAMB435 cell line (skin)): 1690 nM | IC50 (Homo sapiens, MDA-MB-436, 72 h, MDAMB436 cell line (breast)): 250 nM | IC50 (Homo sapiens, MDA-MB-468, 72 h, MDAMB468 cell line (breast)): 240 nM | IC50 (Homo sapiens, MG-63, 72 h, MG63 cell line (bone)): > 50000 nM | IC50 (Homo sapiens, MHH-ES-1, 72 h, MHHES1 cell line (bone)): 500 nM | IC50 (Homo sapiens, MIA PaCa-2, 72 h, MIAPACA2 cell line (pancreas)): > 50000 nM | IC50 (Homo sapiens, MINO, MINO cell line (hematological)): 180 nM | IC50 (Homo sapiens, MV4-11, 72 h, MV4-11 cell line (hematological)): 160 nM | IC50 (Homo sapiens, NCI-H23, 72 h, NCI-H23 cell line (lung)): 640 nM | IC50 (Homo sapiens, NCI-H82, 72 h, NCIH82 cell line (lung)): 490 nM | IC50 (Homo sapiens, NCI-H292, 72 h, NCIH292 cell line (lung)): 2970 nM | IC50 (Homo sapiens, NCI-H460, 72 h, NCIH460 cell line (lung)): 600 nM | IC50 (Homo sapiens, OVCAR-3, 72 h, OVCAR3 cell line (ovary)): 180 nM | IC50 (Homo sapiens, OVCAR-4, 72 h, OVCAR4 cell line (ovary)): 600 nM | IC50 (Homo sapiens, PANC-1, 72 h, PANC1 cell line (pancreas)): > 50000 nM | IC50 (Homo sapiens, PC-3, 72 h, PC3 cell line (prostate)): 660 nM | IC50 (Homo sapiens, PLC-PRF-5, 72 h, PLCPRF5 cell line (liver)): 4950 nM | IC50 (Homo sapiens, Panc1005, 72 h, PANC1005 cell line (pancreas)): 370 nM | IC50 (Homo sapiens, RD, RD cell line (muscle)): 870 nM | IC50 (Homo sapiens, Ramos, RAMOS cell line (hematological)): 600 nM | IC50 (Homo sapiens, SAOS-2, 72 h, SAOS2 cell line (bone)): 360 nM | IC50 (Homo sapiens, SF-268, 72 h, SF268 cell line (brain)): > 50000 nM | IC50 (Homo sapiens, SF-295, 72 h, SF295 cell line (brain)): 1730 nM | IC50 (Homo sapiens, SK-BR-3, 72 h, SKBR3 cell line (breast)): 70 nM | IC50 (Homo sapiens, SK-HEP1, 72 h, SKHEP1 cell line (liver)): 3410 nM | IC50 (Homo sapiens, SK-LMS-1, 72 h, SKLMS1 cell line (uterus)): 340 nM | IC50 (Homo sapiens, SK-MEL-5, 72 h, SKMEL5 cell line, skin): 4010 nM | IC50 (Homo sapiens, SK-MEL-28, 72 h, SKMEL28 cell line (skin)): 670 nM | IC50 (Homo sapiens, SK-N-AS, SKNAS cell line (brain)): 630 nM | IC50 (Homo sapiens, SK-N-SH, SKNSH cell line (brain)): 320 nM | IC50 (Homo sapiens, SK-OV-3, 72 h, SKOV3 cell line (ovary)): 620 nM | IC50 (Homo sapiens, SNB-75, 72 h, SNB75 cell line (brain)): 1510 nM | IC50 (Homo sapiens, SU-DHL10, 72 h, SU-DHL-10 cell line (hematological)): 530 nM | IC50 (Homo sapiens, SU-DHL-6, 72 h, SU-DHL-6 cell line (hematological)): 360 nM | IC50 (Homo sapiens, SW-620, 72 h, SW620 cell line (colon)): 540 nM | IC50 (Homo sapiens, T-24, 72 h, T24 cell line (bladder)): 710 nM | IC50 (Homo sapiens, TE-671, 72 h, TE671 cell line (muscle)): 1920 nM | IC50 (Homo sapiens, THP-1, 72 h, THP-1 cell line (hematological)): > 50000 nM | IC50 (Homo sapiens, U2OS, U2OS cell line (bone)): 610 nM | IC50 (Homo sapiens, U-87 MG, U87MG cell line (brain)): 3660 nM | IC50 (Homo sapiens, UMUC3, 72 h, UMUC3 cell line (bladder)): 3400 nM | IC50 (Homo sapiens, UO-31, 72 h, UO31 cell line (kidney)): 280 nM | IC50 (Homo sapiens, WSU-NHL, WSU-NHL cell line (hematological)): 430 nM | IC50 (MT-3, 72 h, MT3 cell line (breast)): 360 nM | IC50 (NCI-H358M, NCIH358M cell line (lung)): 430 nM | IC50 (PBMC, PBMC (hematological)): > 50000 nM | IC50 (RD-ES, RDES cell line (bone)): 270 nM
SMILES: COC[C@]1(CO)O[C@@H](n2cnc3c(N)nc(F)nc32)C[C@@H]1O [Cpd. No. 140, (2S,3S,5R)-5-(6-amino-2-fluoro-9H-purin-9-yl)-2-(hydroxymethyl)-2-(methoxymethyl)tetrahydrofuran-3-ol]
